Where two headings read alike, the source gives them in different places.
How the values were obtained:
Experiment in all cases: Kinase profile (33P ATP filter binding)
Assay type in all cases: biochemical
EPH-B1 = target: T1, EPH-B1 (Homo sapiens, UniProt P54762); conditions: read-out: Remaining protein kinase activity
T1 sequence (P54762 18-984): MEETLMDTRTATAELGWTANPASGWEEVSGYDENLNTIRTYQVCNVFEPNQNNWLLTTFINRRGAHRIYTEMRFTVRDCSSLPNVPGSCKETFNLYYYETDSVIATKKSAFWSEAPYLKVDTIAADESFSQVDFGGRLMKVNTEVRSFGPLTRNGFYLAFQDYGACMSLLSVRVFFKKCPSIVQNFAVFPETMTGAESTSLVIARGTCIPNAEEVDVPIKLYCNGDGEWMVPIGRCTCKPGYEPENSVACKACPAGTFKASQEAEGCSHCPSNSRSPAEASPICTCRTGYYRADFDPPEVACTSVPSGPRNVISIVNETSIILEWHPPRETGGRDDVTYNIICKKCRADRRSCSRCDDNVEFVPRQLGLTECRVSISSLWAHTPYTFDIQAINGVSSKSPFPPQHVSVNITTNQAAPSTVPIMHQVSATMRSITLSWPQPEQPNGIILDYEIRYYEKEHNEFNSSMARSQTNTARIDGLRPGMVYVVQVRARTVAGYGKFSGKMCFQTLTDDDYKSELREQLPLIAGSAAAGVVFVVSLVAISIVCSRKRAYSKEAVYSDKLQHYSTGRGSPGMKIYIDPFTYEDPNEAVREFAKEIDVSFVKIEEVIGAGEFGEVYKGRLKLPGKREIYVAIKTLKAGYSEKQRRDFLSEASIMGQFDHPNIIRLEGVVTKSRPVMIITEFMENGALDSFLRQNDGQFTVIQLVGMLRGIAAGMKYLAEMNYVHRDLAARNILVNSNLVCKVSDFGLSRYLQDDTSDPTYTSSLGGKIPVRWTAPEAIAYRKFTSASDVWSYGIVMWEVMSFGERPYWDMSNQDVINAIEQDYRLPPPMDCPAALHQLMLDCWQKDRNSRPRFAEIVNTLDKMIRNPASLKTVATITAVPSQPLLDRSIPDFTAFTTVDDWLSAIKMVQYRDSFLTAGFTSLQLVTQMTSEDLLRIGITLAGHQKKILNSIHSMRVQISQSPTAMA

MARK4 = target: T2, MARK4 (Homo sapiens, UniProt Q96L34)
T2 sequence (Q96L34 1-752): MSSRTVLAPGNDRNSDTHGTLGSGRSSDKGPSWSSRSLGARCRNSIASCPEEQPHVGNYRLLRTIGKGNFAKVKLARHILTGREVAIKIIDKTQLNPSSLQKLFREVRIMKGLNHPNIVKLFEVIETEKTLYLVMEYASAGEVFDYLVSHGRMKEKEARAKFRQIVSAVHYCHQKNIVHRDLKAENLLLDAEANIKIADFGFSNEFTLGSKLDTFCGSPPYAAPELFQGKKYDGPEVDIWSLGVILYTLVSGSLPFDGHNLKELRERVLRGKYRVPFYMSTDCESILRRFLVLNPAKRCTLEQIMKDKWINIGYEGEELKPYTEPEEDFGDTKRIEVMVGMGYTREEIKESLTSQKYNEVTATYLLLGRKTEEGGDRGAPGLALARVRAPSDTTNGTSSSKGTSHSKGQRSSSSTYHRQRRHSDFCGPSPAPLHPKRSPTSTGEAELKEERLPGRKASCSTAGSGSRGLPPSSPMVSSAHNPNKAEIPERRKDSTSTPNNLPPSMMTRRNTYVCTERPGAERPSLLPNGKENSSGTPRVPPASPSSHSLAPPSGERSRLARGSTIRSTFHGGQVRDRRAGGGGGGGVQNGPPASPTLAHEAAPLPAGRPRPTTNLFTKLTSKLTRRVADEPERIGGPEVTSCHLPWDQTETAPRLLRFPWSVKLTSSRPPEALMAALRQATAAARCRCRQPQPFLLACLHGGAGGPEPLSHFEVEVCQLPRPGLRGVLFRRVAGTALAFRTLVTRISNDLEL

VEG-FR = VEG-FR (Homo sapiens, UniProt P17948); conditions: read-out: Remaining protein kinase activity
BRK = BRK (Homo sapiens, UniProt Q13882); conditions: read-out: Remaining protein kinase activity
CAMKKb = CAMKKb (Homo sapiens, UniProt Q96RR4); conditions: read-out: Remaining protein kinase activity
Lck = Lck (Homo sapiens, UniProt P06239); conditions: read-out: Remaining protein kinase activity
WNK1 = WNK1 (Homo sapiens, UniProt Q9H4A3)
WNK1, sequence (Q9H4A3 whole entry): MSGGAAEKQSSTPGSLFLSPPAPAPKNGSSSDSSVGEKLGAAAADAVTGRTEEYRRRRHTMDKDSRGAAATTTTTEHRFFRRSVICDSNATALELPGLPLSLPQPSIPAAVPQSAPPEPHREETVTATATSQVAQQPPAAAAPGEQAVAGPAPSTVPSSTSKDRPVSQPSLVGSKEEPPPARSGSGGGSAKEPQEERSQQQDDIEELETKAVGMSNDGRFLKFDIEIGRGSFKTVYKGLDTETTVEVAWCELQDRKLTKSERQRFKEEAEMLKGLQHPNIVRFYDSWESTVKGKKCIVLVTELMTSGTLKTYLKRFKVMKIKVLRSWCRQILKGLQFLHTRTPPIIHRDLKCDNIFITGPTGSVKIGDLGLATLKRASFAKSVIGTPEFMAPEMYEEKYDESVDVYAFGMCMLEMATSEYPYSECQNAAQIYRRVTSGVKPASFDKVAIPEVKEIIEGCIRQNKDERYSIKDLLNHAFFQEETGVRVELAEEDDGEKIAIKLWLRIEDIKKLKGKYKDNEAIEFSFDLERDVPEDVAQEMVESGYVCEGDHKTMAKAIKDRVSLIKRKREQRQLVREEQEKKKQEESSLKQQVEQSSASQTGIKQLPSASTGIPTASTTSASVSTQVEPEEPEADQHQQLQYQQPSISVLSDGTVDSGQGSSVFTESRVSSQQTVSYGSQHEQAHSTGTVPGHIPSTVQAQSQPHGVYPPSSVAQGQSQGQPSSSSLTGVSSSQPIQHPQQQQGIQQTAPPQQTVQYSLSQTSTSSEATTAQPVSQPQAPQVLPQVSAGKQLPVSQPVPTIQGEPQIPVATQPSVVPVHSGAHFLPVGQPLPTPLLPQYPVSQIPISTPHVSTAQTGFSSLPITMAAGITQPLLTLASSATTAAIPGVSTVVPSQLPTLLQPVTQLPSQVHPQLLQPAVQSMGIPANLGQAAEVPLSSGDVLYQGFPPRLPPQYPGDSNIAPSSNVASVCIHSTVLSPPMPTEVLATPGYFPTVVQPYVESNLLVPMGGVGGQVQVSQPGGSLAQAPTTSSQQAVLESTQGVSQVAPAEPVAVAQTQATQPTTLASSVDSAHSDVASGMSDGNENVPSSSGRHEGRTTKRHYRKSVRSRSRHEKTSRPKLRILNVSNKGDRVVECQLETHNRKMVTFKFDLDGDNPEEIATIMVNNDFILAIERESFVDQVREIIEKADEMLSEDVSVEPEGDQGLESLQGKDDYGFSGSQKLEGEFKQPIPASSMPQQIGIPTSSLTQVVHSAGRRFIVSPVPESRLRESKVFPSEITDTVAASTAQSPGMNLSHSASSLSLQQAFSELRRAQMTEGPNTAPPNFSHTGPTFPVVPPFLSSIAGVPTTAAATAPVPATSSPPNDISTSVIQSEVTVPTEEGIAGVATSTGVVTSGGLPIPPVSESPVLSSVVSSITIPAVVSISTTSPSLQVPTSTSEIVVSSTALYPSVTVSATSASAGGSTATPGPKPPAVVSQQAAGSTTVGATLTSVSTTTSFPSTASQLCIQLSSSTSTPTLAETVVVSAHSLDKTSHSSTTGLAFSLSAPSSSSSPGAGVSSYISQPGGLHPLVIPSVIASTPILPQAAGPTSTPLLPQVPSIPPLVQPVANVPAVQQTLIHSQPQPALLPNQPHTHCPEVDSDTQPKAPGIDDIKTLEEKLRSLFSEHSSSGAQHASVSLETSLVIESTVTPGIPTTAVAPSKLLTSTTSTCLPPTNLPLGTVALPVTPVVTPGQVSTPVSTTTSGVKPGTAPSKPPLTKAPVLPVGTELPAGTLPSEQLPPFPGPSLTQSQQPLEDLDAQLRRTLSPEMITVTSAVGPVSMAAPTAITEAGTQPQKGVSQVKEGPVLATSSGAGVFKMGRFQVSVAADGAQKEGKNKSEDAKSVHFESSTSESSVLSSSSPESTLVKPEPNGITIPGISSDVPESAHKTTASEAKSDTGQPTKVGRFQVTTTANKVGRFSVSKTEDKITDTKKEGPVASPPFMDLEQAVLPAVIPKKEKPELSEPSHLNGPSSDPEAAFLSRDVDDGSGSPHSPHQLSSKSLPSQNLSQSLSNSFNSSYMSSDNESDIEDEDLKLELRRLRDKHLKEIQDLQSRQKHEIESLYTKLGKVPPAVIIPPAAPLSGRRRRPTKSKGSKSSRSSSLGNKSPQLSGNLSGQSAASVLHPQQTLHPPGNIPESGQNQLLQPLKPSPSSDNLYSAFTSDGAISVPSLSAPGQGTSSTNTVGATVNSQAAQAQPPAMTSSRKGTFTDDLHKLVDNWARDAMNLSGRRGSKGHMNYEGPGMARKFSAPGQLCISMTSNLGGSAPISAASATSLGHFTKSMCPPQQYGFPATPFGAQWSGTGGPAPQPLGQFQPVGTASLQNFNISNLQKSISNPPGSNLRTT

CAMKKb, sequence (Q96RR4 whole entry): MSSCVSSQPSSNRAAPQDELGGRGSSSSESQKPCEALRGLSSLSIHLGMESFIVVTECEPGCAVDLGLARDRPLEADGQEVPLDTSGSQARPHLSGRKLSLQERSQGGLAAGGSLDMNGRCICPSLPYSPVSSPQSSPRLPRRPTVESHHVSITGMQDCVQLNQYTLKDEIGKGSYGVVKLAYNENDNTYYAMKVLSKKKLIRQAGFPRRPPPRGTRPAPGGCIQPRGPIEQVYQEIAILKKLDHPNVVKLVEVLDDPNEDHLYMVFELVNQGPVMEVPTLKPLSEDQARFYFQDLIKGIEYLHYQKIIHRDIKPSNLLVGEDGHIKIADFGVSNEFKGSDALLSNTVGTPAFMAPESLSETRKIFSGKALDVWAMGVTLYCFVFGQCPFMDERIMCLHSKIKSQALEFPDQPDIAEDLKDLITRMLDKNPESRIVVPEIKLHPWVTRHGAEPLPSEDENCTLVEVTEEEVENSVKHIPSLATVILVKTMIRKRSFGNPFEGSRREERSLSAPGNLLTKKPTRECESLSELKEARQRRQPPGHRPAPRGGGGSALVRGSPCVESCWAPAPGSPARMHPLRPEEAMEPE
BRK, sequence (Q13882 whole entry): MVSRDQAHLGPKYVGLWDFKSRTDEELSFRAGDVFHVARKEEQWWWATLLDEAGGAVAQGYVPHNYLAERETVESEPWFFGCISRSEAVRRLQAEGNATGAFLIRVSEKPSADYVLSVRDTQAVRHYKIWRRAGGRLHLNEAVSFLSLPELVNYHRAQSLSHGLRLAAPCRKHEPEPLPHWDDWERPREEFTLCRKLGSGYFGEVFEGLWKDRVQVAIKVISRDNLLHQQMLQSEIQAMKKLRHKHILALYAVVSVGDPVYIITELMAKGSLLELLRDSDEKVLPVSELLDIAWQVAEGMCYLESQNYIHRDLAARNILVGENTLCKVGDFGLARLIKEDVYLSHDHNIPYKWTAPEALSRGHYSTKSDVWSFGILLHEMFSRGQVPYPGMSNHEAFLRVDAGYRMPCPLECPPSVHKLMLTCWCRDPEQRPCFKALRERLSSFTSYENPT
VEG-FR, sequence (P17948 27-1338): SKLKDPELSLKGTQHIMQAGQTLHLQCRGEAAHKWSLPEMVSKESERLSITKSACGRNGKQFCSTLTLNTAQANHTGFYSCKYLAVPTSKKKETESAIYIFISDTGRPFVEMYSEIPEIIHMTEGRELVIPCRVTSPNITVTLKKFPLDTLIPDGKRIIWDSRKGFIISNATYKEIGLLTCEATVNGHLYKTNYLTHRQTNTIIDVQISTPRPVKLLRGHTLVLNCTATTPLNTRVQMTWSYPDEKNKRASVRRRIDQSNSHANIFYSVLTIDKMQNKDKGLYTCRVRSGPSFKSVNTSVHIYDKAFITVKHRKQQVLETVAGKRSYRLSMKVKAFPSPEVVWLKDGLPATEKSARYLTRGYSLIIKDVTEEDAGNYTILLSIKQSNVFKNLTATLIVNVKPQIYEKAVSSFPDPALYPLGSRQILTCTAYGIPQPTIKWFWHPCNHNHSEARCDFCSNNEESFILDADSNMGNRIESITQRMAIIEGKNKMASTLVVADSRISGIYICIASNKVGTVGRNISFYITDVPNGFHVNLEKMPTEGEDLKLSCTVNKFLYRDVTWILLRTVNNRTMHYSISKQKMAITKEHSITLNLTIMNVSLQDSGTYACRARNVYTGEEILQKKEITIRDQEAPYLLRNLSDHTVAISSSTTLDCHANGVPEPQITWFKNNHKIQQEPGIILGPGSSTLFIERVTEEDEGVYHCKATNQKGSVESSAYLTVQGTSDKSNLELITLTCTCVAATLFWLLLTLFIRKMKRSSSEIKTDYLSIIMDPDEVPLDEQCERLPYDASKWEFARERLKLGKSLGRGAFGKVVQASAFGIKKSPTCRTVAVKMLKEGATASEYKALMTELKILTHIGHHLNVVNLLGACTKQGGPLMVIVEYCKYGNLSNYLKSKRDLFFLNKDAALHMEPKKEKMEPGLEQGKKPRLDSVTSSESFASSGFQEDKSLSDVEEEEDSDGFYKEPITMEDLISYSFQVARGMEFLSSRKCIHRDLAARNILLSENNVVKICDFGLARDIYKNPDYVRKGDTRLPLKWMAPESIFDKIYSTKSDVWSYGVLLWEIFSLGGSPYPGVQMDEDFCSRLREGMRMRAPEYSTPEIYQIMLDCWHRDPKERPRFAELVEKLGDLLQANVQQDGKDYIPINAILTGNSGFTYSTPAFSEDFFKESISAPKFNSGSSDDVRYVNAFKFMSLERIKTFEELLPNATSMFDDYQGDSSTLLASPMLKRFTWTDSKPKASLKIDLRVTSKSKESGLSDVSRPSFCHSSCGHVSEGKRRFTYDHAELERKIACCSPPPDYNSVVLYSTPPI

With `COc1ccc2sc(-c3cncc(NC(C)=O)c3)nc2c1` [PST-001, N-(5-(5-Methoxybenzo[d]thiazol-2-yl)pyridin-3-yl)acetamide] the remaining activity at 1 µM (EPH-B1) was 117%, the remaining activity at 100 µM (EPH-B1) was 108% and the “Remaining protein kinase activity” value (MARK4; 1 μM) was 121%. The “Remaining protein kinase activity” value (MARK4; 100 μM) was 103%, the remaining activity at 1 µM (VEG-FR) was 111% and the remaining activity at 100 µM (VEG-FR) was 41%. The remaining activity at 1 µM (BRK) was 106%, the remaining activity at 100 µM (BRK) was 106% and the remaining activity at 1 µM (CAMKKb) was 104%. It also gave a remaining activity at 100 µM (CAMKKb) of 54%, a remaining activity at 1 µM (Lck) of 93% and a remaining activity at 100 µM (Lck) of 100%. The “Remaining protein kinase activity” value (WNK1; 1 μM) was 127% and the “Remaining protein kinase activity” value (WNK1; 100 μM) was 118%.

In the case of `COc1ccc2sc(-c3cncc(N)c3)nc2c1` [compound 1, 5-(5-Methoxybenzo[d]thiazol-2-yl)pyridin-3-amine], the remaining activity at 1 µM (EPH-B1; EPH-B1, 1 μM) is reported as 122%, the remaining activity at 100 µM (EPH-B1; EPH-B1, 100 μM) is reported as 91% and the “Remaining protein kinase activity” value (MARK4; 1 μM) is reported as 131%. For the same compound, the “Remaining protein kinase activity” value (MARK4; 100 μM) was 58%, the remaining activity at 1 µM (VEG-FR; VEG-FR, 1 μM) was 110% and the remaining activity at 100 µM (VEG-FR; VEG-FR, 100 μM) was 20%. It also gave a remaining activity at 1 µM (BRK; BRK, 1 μM) of 94%, a remaining activity at 100 µM (BRK; BRK, 100 μM) of 50% and a remaining activity at 1 µM (CAMKKb; CAMKKb, 1 μM) of 107%. For the same compound, the remaining activity at 100 µM (CAMKKb; CAMKKb, 100 μM) was 37%, the remaining activity at 1 µM (Lck; Lck, 1 μM) was 106% and the remaining activity at 100 µM (Lck; Lck, 100 μM) was 52%. The “Remaining protein kinase activity” value (WNK1; 1 μM) was 116% and the “Remaining protein kinase activity” value (WNK1; 100 μM) was 113%.

From article PMC8617627, “Novel DYRK1A Inhibitor Rescues Learning and Memory Deficits in a Mouse Model of Down Syndrome” (Pharmaceuticals, 2021)
